These results are taken from US20250057864A1, “COMPOSITION FOR IMPROVING EXERCISE PERFORMANCE COMPRISING GYPENOSIDE COMPOUND AS ACTIVE INGREDIENT” (BTC CORPORATION, priority 2022, published 2025).

For test [1], the system named is C2C12 cells. Nature of the test: Intracellular ROS production in C2C12 cells (DCF-DA). Format: cell-based, mice. Conditions: oxidative stress by 50 μM TBHP, 1 h pretreatment with test substance. On the procedure: C2C12 cells were dispensed into a 96-well plate at 1×10^4 cells/well and stabilized for 24 hours. Subsequently, the cells were cultured for 1 hour after exchanging with the culture medium with the myocyte differentiation medium containing each test substance. After 1 hour, the cells were washed with PBS and cultured further for 3 hours with a culture medium containing 50 μM tert-butyl hydrogen peroxide (TBHP), and the ROS level in the cells was measured using a DCF-DA assay kit (Abcam) according to the manufacturer's method.
In order to investigate the effect of each of the compositions according to Examples 1 to 4 on ROS production in C2C12 cells, ROS production was measured using 2′,7′-dichlorofluorescin diacetate (DCF-DA). DCF-DA was measured using the principle that it is oxidized by ROS in cells and is converted to DCF, which emits fluorescence.

For test [2], the system named is p-AMPK, p-Sirt1, p-p38, p-Nrf2 in C2C12 cells. Nature of the test: Western blot of proteins related with PGC-1α activation in C2C12 cells. The conditions noted are these: C2C12, 0.36 μg/mL (Cr 5 μg/mL), control G1 = 1.00. In kind it is cell-based, mice. On the procedure: C2C12 cells were dispensed into a 6-well plate at 2×10^5 cells/well and stabilized for 24 hours. In order to investigate the effect of each test substance on muscle cell differentiation, each test substance was added to the myocyte differentiation medium. The cells were cultured for 4 days (mRNA analysis) or 7 days (protein analysis) after exchanging the cell culture medium with the myocyte differentiation medium treated with each test substance, as shown in Table 2.
C2C12 cells were dispensed into a 6-well plate at 2×10^5 cells/well and stabilized for 24 hours. The cells were cultured for 7 days after exchanging the culture medium with a myocyte differentiation medium containing the test substance. After the induction of differentiation for 7 days, the cells were homogenized by adding a lysis buffer (20 mmol/L HEPES, pH 7.5, 150 mmol/L NaCl, 1% Triton X-100, 1 mmol/L EDTA, 1 mmol/L EGTA, 100 mmol/L NaF, 10 mmol/L sodium pyrophosphate, 1 mmol/L Na3VO4, 20 μg/mL aprotinin, 10 μg/mL antipain, 10 μg/mL leupeptin, 80 μg/mL benzamidine HCl, 0.2 mmol/L PMSF) and a total cell lysate was obtained through centrifugation. The protein quantity of the total cell lysate was measured using a BCA protein assay kit (Thermo Scientific). The total cell lysate (50 μg) was separated by 10% sodium dodecyl sulfate polyacrylamide gel electrophoresis (SDS-PAGE) and then transferred to a polyvinylidene difluoride membrane (Milipore). The membrane was blocked for 1 hour in 5% skim milk-TBST (20 mmol/L Tris·HCl, pH 7.5, 150 mmol/L NaCl, 0.1% Tween 20) and then incubated for 16 hours at 4° C. or for 1 hour at room temperature after adding antibodies. Thereafter, horseradish peroxidase (HRP)-linked anti-rabbit IgG or HRP-linked anti-mouse IgG was added and the mixture was stirred for 1 hour. The detected protein bands were visualized by enhanced chemiluminescence using a Luminata™ Forte Western HRP substrate (Millipore). The level of protein expression was quantified using the ImageQuant™ LAS 500 imaging system (GE Healthcare Bio-Sciences AB).
The result of western blot analysis conducted using the total cell lysate obtained by treating with the test substance to investigate the effect of the test substance on the changes in proteins associated with PGC-1α activation is shown in Table 6.
Based on the western blot analysis result, the activity of each protein was evaluated from the ratio of activation.

For `O=C(O)c1ccc2c3c1cccc3c(=O)n1c3ccccc3nc21` [STO], the “ROS production (fluorescence intensity)” value in test [1] is recorded as 33.97±2.22 fluorescence intensity. Further, in test [2], the p-AMPK/AMPK ratio entry was “significantly inhibited”, the p-Nrf2/Nrf2 ratio entry is “significantly inhibited” and the p-p38/p38 ratio result is on record as “significantly inhibited”.
